Source: the supplement of paper PMC10307832

Assays:
Assay in all cases: relative viability (nuclei count vs DMSO), 5 days (fraction); higher = more cells survive
[1] = compound: CCN1C(=O)C2=CC(=C(N=C2N(C1=O)C3CC3)N)C(=O)N + Cc1nc(NC(=O)N2CCC[C@H]2C(N)=O)sc1-c1ccnc(C(C)(C)C(F)(F)F)c1 [Alpelisib] (partner 2 µM)
Outline: (§1)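 Lung cancer cell lines in 1536-well plates got either a single drug or a fixed anchor-drug dose together with five library-drug doses (not always all listed) in √10 steps, by pin tool, on the day after seeding. Nuclei were counted after 5 days, and relative viability is the treated-to-vehicle ratio of nuclei counts. Values are medians of duplicate plates.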

[2] = compound: CCN1C(=O)C2=CC(=C(N=C2N(C1=O)C3CC3)N)C(=O)N + C[C@@H](Oc1cc(-c2cnn(C3CCNCC3)c2)cnc1N)c1c(Cl)ccc(F)c1Cl [Crizotinib] (partner 1 µM)
Outline: as §1

[3] = compound: CCN1C(=O)C2=CC(=C(N=C2N(C1=O)C3CC3)N)C(=O)N + N=C(N)NC(=N)NCCc1ccccc1 [Phenformin] (partner 250 µM)
Outline: as §1

[4] = compound: CCN1C(=O)C2=CC(=C(N=C2N(C1=O)C3CC3)N)C(=O)N + COc1cc2c(Oc3ccc(NC(=O)C4(C(=O)Nc5ccc(F)cc5)CC4)cc3F)ccnc2cc1OCCCN1CCOCC1 [Foretinib] (partner 0.25 µM)
Outline: as §1

[5] = compound: CCN1C(=O)C2=CC(=C(N=C2N(C1=O)C3CC3)N)C(=O)N + COc1cccc2cc(-c3nc([C@H]4CC[C@H](C(=O)O)CC4)n4ncnc(N)c34)[nH]c12 [OSI-027] (partner 0.5 µM)
Outline: as §1

Cell Line	relative viability ([1]; first compound 0.253 µM)	relative viability ([1]; first compound 0.8 µM)	relative viability ([1]; first compound 2.53 µM)	relative viability ([1]; first compound 8 µM)	relative viability ([2]; first compound 0.253 µM)	relative viability ([2]; first compound 0.8 µM)	relative viability ([2]; first compound 2.53 µM)	relative viability ([2]; first compound 8 µM)	relative viability ([3]; first compound 0.253 µM)	relative viability ([3]; first compound 0.8 µM)	relative viability ([3]; first compound 2.53 µM)	relative viability ([3]; first compound 8 µM)	relative viability ([4]; first compound 0.253 µM)	relative viability ([4]; first compound 0.8 µM)	relative viability ([4]; first compound 2.53 µM)	relative viability ([4]; first compound 8 µM)	relative viability ([5]; first compound 0.253 µM)	relative viability ([5]; first compound 0.8 µM)	relative viability ([5]; first compound 2.53 µM)	relative viability ([5]; first compound 8 µM)
201T	1.04	1.02	1.04	1.04	1.08	0.97	0.98	1.03	0.478	0.474	0.442	0.47	1.01	1.07	1.15	1.2	0.431	0.729	0.761	0.667
A549	0.698	0.858	0.746	0.931	0.712	0.76	0.732	0.886		0.22	0.155	0.155	0.898	1.06	0.809	1.01				
A-427	1.02	1.04	1.04	1.09	0.986	1.08	0.774	1.06	0.376	0.307	0.376	0.343	1.13	1.13	1.08	1.21	0.46	0.487	0.49	0.466
ABC-1	1.23	0.751	1.11	0.969	1.21	1.04	1.18	1.32	0.24	0.22	0.274	0.25	1.19	0.873	0.908	1.05	0.438	0.474	0.538	0.469
BEN	1.07	1.02	0.929	1.01	0.713	0.865	0.903	1.07	0.251	0.273	0.264	0.284	1.13	0.618	0.69	0.558	0.297	0.321	0.273	0.295
CAL-12T	1.07	1.07	0.964	1.21	0.549	0.595	0.702	0.783	0.565	0.61	0.49	0.547	1.09	1.18	1.09	1.01	0.689	0.478	0.543	0.512
COR-L23	0.775	0.714	0.816	0.944	0.594	0.635	0.567	0.695	0.429	0.442	0.435	0.423	0.91	1.03	1.08	0.947	0.883	0.819	0.743	0.867
COR-L 105	1.08	0.959	0.833	0.853	0.915	0.726	0.732	0.995	0.452	0.391	0.498	0.379	0.748	1.01	0.864	1.01	0.873	0.729	0.634	0.651
ChaGo-K-1					1.14	1.13	1.14	1.41	0.485	0.446	0.561	0.472	0.873	0.97	0.895	0.948	0.516	0.518	0.683	0.502
HCC-44	0.829	0.802	0.778	0.784	0.844	0.826	0.772	0.851	0.296	0.18	0.277	0.185					0.568	0.446	0.527	0.421
NCI-H522									0.552	0.565	0.705	0.546					0.715	0.623	0.647	0.722
NCI-H1395	0.958	1.04	1.01	0.976					0.451	0.428	0.464	0.439	1.01	0.868	0.952	0.991	0.62	0.587	0.697	0.593
NCI-H1650					0.982	0.897	1.11	1.2	0.47	0.4	0.367	0.379	0.913	1.15	0.955	1.12	0.577	0.444	0.629	0.544
NCI-H1703	0.339	0.342	0.31	0.368	0.718	0.727	0.565	1.04					0.393	0.432	0.328	0.372				
NCI-H1792	0.777	0.687	0.759	0.774	1.1	0.902	1.08	0.878	0.224	0.237	0.367	0.352					0.69	0.696	0.733	0.651
NCI-H1793	0.715	0.644		0.63						0.38	0.352	0.408		0.612	0.575	0.679		0.294	0.212	0.239
NCI-H2342									0.556	0.547	0.666	0.532	1.08	0.941	1.1	1.03	0.612	0.568	0.704	0.524
